Earlier results in PubChem BioAssay AID1259409 (Chemical Carcinogenesis Research Information System (CCRIS), 2018).

Tested on: rodent chemically induced tumor inhibition, incidence and multiplicity
Experiment: CCRIS tumor inhibitor studies

CC(C)C[C@H]1C(=O)N2CCC[C@H]2[C@]2(O)O[C@](NC(=O)[C@@H]3C=C4c5cccc6[nH]c(Br)c(c56)C[C@H]4N(C)C3)(C(C)C)C(=O)N12
tumour outcome (control, treated, inhibition, significance) (Carcinogen: N-METHYL-N-NITROSOUREA, 684-93-5, Dose [Inhibitor]: 0.4 MG/100 G BW 1/D FOR 129 D BEGINNING AT 60 D OF AGE (STUDY DURATION: 223 D), Route [Inhibitor]: SUBCUTANEOUS, Species: RAT, Strain/Sex: SPRAGUE-DAWLEY/FEMALE, Target Tissue: Type of Lesion: MAMMARY GLAND: NOT SPECIFIED, Dose [Carcinogen]: 2.5 MG/100 G BW ONCE AT 50 D AND ONCE AT 57 D OF AGE, Promoter: NONE USED): 73%, 37%, 49%, p<0.005 | tumour outcome (control, treated, inhibition, significance) (Carcinogen: N-METHYL-N-NITROSOUREA, 684-93-5, Dose [Inhibitor]: 0.4 MG/100 G BW 1/D FOR 175 D BEGINNING AT 60 D OF AGE (STUDY DURATION: 185 D), Route [Inhibitor]: SUBCUTANEOUS, Species: RAT, Strain/Sex: SPRAGUE-DAWLEY/FEMALE, Target Tissue: Type of Lesion: MAMMARY GLAND: NOT SPECIFIED, Dose [Carcinogen]: 1.25 MG/100 G BW ONCE AT 50 D AND ONCE AT 57 D OF AGE, Promoter: NONE USED): 27%, 13%, 52%, not significant | tumour outcome (control, treated, inhibition, significance) (Carcinogen: N-METHYL-N-NITROSOUREA, 684-93-5, Dose [Inhibitor]: 0.4 MG/100 G BW 1/D PLUS 328 MG RETINYL ACETATE/KG DIET FOR 175 D BEGINNING AT 60 D OF AGE (STUDY DURATION: 185 D), Route [Inhibitor]: SUBCUTANEOUS, Species: RAT, Strain/Sex: SPRAGUE-DAWLEY/FEMALE, Target Tissue: Type of Lesion: MAMMARY GLAND: NOT SPECIFIED, Dose [Carcinogen]: 1.25 MG/100 G BW ONCE AT 50 D AND ONCE AT 57 D OF AGE, Promoter: NONE USED): 27%, 0%, 100%, p<0.01 | tumour outcome (control, treated, inhibition, significance) (Carcinogen: N-METHYL-N-NITROSOUREA, 684-93-5, Dose [Inhibitor]: 0.4 MG/100 G BW 1/D PLUS 328 MG RETINYL ACETATE/KG OF DIET, FOR 129 D BEGINNING AT 60 D OF AGE (STUDY DURATION: 223 D), Route [Inhibitor]: SUBCUTANEOUS, Species: RAT, Strain/Sex: SPRAGUE-DAWLEY/FEMALE, Target Tissue: Type of Lesion: MAMMARY GLAND: NOT SPECIFIED, Dose [Carcinogen]: 2.5 MG/100 G BW ONCE AT 50 D AND ONCE AT 57 D OF AGE, Promoter: NONE USED): 73%, 7%, 90%, p<0.005 | outcome (Carcinogen: N-METHYL-N-NITROSOUREA, 684-93-5, Dose [Inhibitor]: 400 UG/100 G BW TOGETHER WITH 25 UG/100 G BW TAMOXIFEN 1/D FOR 6 MO BEGINNING 3 D POST CARCINOGEN DOSE, DOSAGE OF BOTH R, Route [Inhibitor]: SUBCUTANEOUS, Species: RAT, Strain/Sex: SPRAGUE-DAWLEY/FEMALE, Target Tissue: Type of Lesion: MAMMARY GLAND: CARCINOMA, Dose [Carcinogen]: 2.5 MG/100 G BW ONCE AT 50 D AND ONCE AT 57 D OF AGE, Promoter: NONE USED): 88%, 3%, 97%, p<0.001 (at 4 mo post carcinogen dose); 88%, 28%, 68%, not calcula | outcome (Carcinogen: N-METHYL-N-NITROSOUREA, 684-93-5, Dose [Inhibitor]: 400 UG/100 G BW TOGETHER WITH 25 UG/100 G BW TAMOXIFEN 1/D FOR 6 MO PLUS 328 MG RETINYL ACETATE/KG DIET FOR 6 MO, DOSAGE, Route [Inhibitor]: SUBCUTANEOUS, Species: RAT, Strain/Sex: SPRAGUE-DAWLEY/FEMALE, Target Tissue: Type of Lesion: MAMMARY GLAND: CARCINOMA, Dose [Carcinogen]: 2.5 MG/100 G BW ONCE AT 50 D AND ONCE AT 57 D OF AGE, Promoter: NONE USED): 88%, 0%, 100%, p<0.001 (at 4 mo post carcinogen dose); 88%, 7%, 92%, not calcula | outcome (Carcinogen: N-ethyl-N'-nitro-N-nitrosoguanidine (ENNG), 4245-77-6, Dose [Inhibitor]: 1 mg/kg bw 5 x a wk up to 14.5 mo of age (half a mo before termination of experiment), Route [Inhibitor]: Subcutaneous, Species: Rat, Strain/Sex: Crj:Donryu/female, Target Tissue: Type of Lesion: Uterus: Adenocarcinoma, Dose [Carcinogen]: 20 mg/kg, Promoter: None): 9/25 (36%), 3/23 (13%), p<0.05 | tumour outcome (control, treated, inhibition, significance) (Carcinogen: NONE USED, Dose [Inhibitor]: 0.1 MG IN SALINE 1/D FOR 12 MO BEGINNING AT 2 MO OF AGE (STUDY DURATION: 22 MO), Route [Inhibitor]: SUBCUTANEOUS, Species: MOUSE, Strain/Sex: C3H/FEMALE, Target Tissue: Type of Lesion: MAMMARY GLAND: CARCINOMA, Promoter: NONE USED): 24/90 (27%), 1/90 (1%), 96%, p<0.001 | tumour outcome (control, treated, inhibition, significance) (Carcinogen: NONE USED, Dose [Inhibitor]: 0.1 MG IN SALINE 1/D FOR 30 D ON ALTERNATE MO BEGINNING AT 7 MO OF AGE FOR 12 MO (STUDY DURATION: 12 MO), Route [Inhibitor]: SUBCUTANEOUS, Species: MOUSE, Strain/Sex: C3H/FEMALE, Target Tissue: Type of Lesion: MAMMARY GLAND: CARCINOMA, Promoter: NONE USED): 36/70 (51%), 9/70 (13%), 74%, p<0.01 | tumour outcome (control, treated, inhibition, significance) (Carcinogen: NONE USED, Dose [Inhibitor]: 0.1 MG/D BEGINNING AT 1 MO OF AGE FOR 16 MO (STUDY DURATION: 16 MO), Route [Inhibitor]: SUBCUTANEOUS, Species: MOUSE, Strain/Sex: C3H/FEMALE, Target Tissue: Type of Lesion: MAMMARY GLAND: TUMOR, Promoter: NONE USED): 24/29 (83%), 13/28 (46%), 44%, p<0.01 | tumour outcome (control, treated, inhibition, significance) (Carcinogen: NONE USED, Dose [Inhibitor]: 0.5 MG IN 0.05 ML OLIVE OIL 1/D FOR 7 WK BEGINNING AT 4 WK OF AGE (STUDY DURATION: 26 MO), Route [Inhibitor]: SUBCUTANEOUS, Species: RAT, Strain/Sex: SPRAGUE-DAWLEY/FEMALE, Target Tissue: Type of Lesion: MAMMARY GLAND: TUMOR, Promoter: NONE USED): 70%, 32%, 54%, p<0.05 | tumour outcome (control, treated, inhibition, significance) (Carcinogen: NONE USED, Dose [Inhibitor]: 0.5 MG IN 0.05 ML OLIVE OIL 1/D FOR 7 WK BEGINNING AT 11 WK OF AGE (STUDY DURATION: 26 MO), Route [Inhibitor]: SUBCUTANEOUS, Species: RAT, Strain/Sex: SPRAGUE-DAWLEY/FEMALE, Target Tissue: Type of Lesion: MAMMARY GLAND: TUMORS, Promoter: NONE USED): 70%, 55%, 21%, p<0.05 | tumour outcome (control, treated, inhibition, significance) (Carcinogen: NONE USED, Dose [Inhibitor]: 8.5 MG/KG 1/D FOR 4 D TO PREGNANT MICE ON D 12 TO D 15 OF PREGNANCY, FEMALE OFFSPRING OBSERVED FOR 10 MO (STUDY DURATION, Route [Inhibitor]: SUBCUTANEOUS, Species: MOUSE, Strain/Sex: SHN/FEMALE, Target Tissue: Type of Lesion: MAMMARY GLAND: NOT SPECIFIED, Promoter: NONE USED): 33/38 (87%), 10/13 (77%), 11%, not calculated | tumour outcome (control, treated, inhibition, significance) (Carcinogen: NONE USED, Dose [Inhibitor]: 40 MG/KG 1/D FOR FIRST 5 D OF POSTNATAL LIFE, OBSERVED FOR 10 MO (STUDY DURATION: 10 MO), Route [Inhibitor]: SUBCUTANEOUS, Species: MOUSE, Strain/Sex: SHN/FEMALE, Target Tissue: Type of Lesion: MAMMARY GLAND: NOT SPECIFIED, Promoter: NONE USED): 33/38 (87%), 17/17 (100%), -15%, not significant | tumour outcome (control, treated, inhibition, significance) (Carcinogen: NONE USED, Dose [Inhibitor]: 100 UG OF 1 MG/ML DISSOLVED IN A MINIMAL AMOUNT OF ETHANOL AND SUSPENDED IN 0.9% NACL 1/D FROM D 7 TO 21 OF PREGNANCY (S, Route [Inhibitor]: SUBCUTANEOUS, Species: MOUSE, Strain/Sex: GR/FEMALE, Target Tissue: Type of Lesion: MAMMARY GLAND: TUMOR, Promoter: NONE USED): 39/44 (89%), 24/43 (56%), 37%, p<0.05
